The text below walks through data of patent US8299223B2, “Pseudoglycolipid and use thereof” (Riken, priority 2007, dated 2012).

Test [1] has as its system IL-4. Description: Experimental Example 3: dendritic cells plus human peripheral blood mononuclear cells, IL-4 in culture supernatant. Particulars: culture supernatants; as compared to α-GalCer and α-C-GalCer; FIG. 4. The test is classed as cell-based. On the procedure: (§1) The following experiment was performed for human NKT cell proliferation and IFN-γ production induction.
(§2) Monocytes were prepared from the peripheral blood of a healthy subject by anti-CD14 microbeads (Miltenyi Biotech), and dendritic cells were induced using GM-CSF and IL-4 (Peprotech). To the dendritic cells was added α-GalCer or synthetic glycolipid (α-C-GalCer, compound 11′, compound 51′), human peripheral blood mononuclear cell was added and the cells were cultured.

The subject of test [2] is IFN-γ. The experiment in a line: Experimental Example 3: human NKT cell proliferation and IFN-γ production induction, dendritic cells plus peripheral blood mononuclear cells, IFN-γ in culture supernatant. The test is classed as cell-based. Conditions: as compared to α-GalCer and α-C-GalCer; for IFN-γ concentration of the culture supernatants: 3 days and 8 days later, FIG. 4 (a), (b); for selectivity of IFN-γ production induction: IFN-γ versus IL-4, FIG. 4 (a)-(d). On the procedure: as §1, §2
In this experiment, the IFN-γ concentration of the culture supernatants 3 days and 8 days later was measured. As a result, the concentration was very high when stimulated with compound 11′ and compound 51′ as compared to α-GalCer and α-C-GalCer (FIG. 4 (a), (b)).

Test [3] concerns IFN-γ. Description: Experimental Example 1: IFN-γ content of plasma after intraperitoneal injection in C57BL/6 mouse (Cytometric bead array). It is filed as in vivo. Conditions: intraperitoneal 100, 10 or 1 μg/kg body weight, plasma 6, 12, 24, 36 and 48 hr after administration, FIG. 1. On the procedure: (§3) Compound 11′ was dissolved in […] saline (manufactured by OTSUKA PHARMACEUTICAL CO., LTD) containing Tween 20 (Bio-Rad) and prepared to a dose of 100 μg/kg body weight, 10 μg/kg body weight or 1 μg/kg body weight C57BL/6 mouse (5 per group), and the compound 11′ solution (200 μL) was intraperitoneally injected.
(§4) α-GalCer was used as a control substance, and 200 μL of each α-GalCer solution prepared to a dose of 100 μg/kg body weight, 10 μg/kg body weight or 1 μg/kg body weight according to a similar method was intraperitoneally injected.
(§5) A group administered with a medium (200 μL of saline containing 0.5% Tween 20) was taken as a negative control. The blood (80 μL) was taken from the orbital plexus venosus immediately before administration and 3, 6, 12, 24, 36 and 48 hr after administration, and the plasma was prepared. The IL-4 content of plasma immediately before administration and 3, 6 and 12 hr after administration, as well as IFN-γ content of plasma immediately before administration and 6, 12, 24, 36 and 48 hr after administration were measured by Cytometric bead array system (BD Biosciences), which is one kind of the ELISA method. The measurement results of IFN-γ production amount are shown FIG. 1 and the measurement results of IL-4 production amount are shown in FIG. 2.

The subject of the next test is B16 melanoma. The experiment in a line: Experimental Example 2: anti-liver metastasis effect, survival after intrasplenic transfer of B16 melanoma. The test is classed as in vivo, mouse. Particulars: FIG. 3. On the procedure: The following experiment was performed for the anti-liver metastasis effect.
The left side of mouse was opened under anesthesia, and the spleen was exposed. 1×10^6 B16 melanoma was intrasplenically transferred using a 1 mL syringe (TERUMO CORPORATION), maintained for 30 sec, and the blood vessel was sutured. The spleen was isolated and the peritoneal membrane was sutured with a surgical thread (No. 4, Alfresa Pharma Corporation), and the outer skin was joined with a surgical clip. After 3 hr from the cell transfer, α-GalCer and compound 11′ were administered each in an amount of 2, 0.2 or 0.02 μg per mouse from the tail vein and the survival rate of each group was examined.

Test [4] deals with IL-4. Description: Experimental Example 1: IL-4 content of plasma after intraperitoneal injection in C57BL/6 mouse (Cytometric bead array). It is filed as in vivo. Conditions: intraperitoneal 100, 10 or 1 μg/kg body weight, plasma 3, 6 and 12 hr after administration, FIG. 2. On the procedure:
as §3, §4, §5

Turning to `CCCCCCCCCCCCCCCCCCCCCCCCCC(=O)N[C@@H](CO[C@H]1CC(CO)[C@H](O)C(O)C1O)[C@H](O)[C@H](O)CCCCCCCCCCCCCC` (stereo partly drawn) [compound 11′, (2S,3S,4R)-1-(5a-carba-α-D-galactopyranosyloxy)-2-(hexacosanoylamino)-3,4-octadecanediol], the IL-4 concentration entry in the test with IL-4 [1] was “almost the same”. Further, the “IFN-γ concentration of the culture supernatants” value in the test with IFN-γ [2] is recorded as “very high”. Moreover, the “selectivity of IFN-γ production induction” value in the test with IFN-γ [2] is recorded as “selectively induced IFN-γ production”. The IFN-γ production amount entry with IFN-γ [3] was “preferentially produced IFN-γ”. The survival period result in the test with B16 melanoma (2, 0.2 or 0.02 μg per mouse from the tail vein 3 hr after cell transfer, as compared to the non-treatment group and the α-GalCer administration group) is listed as “extended”; with B16 melanoma (administration of 0.2 and 0.02 μg per mouse, as compared to the α-GalCer administration group), “remarkable elongated”. In addition, the IL-4 production amount entry in the test with IL-4 [4] was “in a small amount”.

For the molecule `CCCCCCCCCCCCCCCCCCCCCCCCCC(=O)N[C@@H](CO[C@H]1C[C@H](C)[C@H](O)[C@H](O)[C@H]1O)[C@H](O)[C@H](O)CCCCCCCCCCCCCC` [compound 51′, (2S,3S,4R)-1-(5a-carba-α-D-fucopyranosyloxy)-2-(hexacosanoylamino)-3,4-octadecanediol], the IL-4 concentration entry with IL-4 [1] is reported as “almost the same”. In the test with IFN-γ [2], the “IFN-γ concentration of the culture supernatants” value is listed as “very high” and the “selectivity of IFN-γ production induction” value was “selectively induced IFN-γ production”.

Turning to `CCCCCCCCCCCCCCCCCCCCCCCCCC(=O)N[C@@H](COC1OC(CO)C(O)C(O)C1O)[C@H](O)[C@H](O)CCCCCCCCCCCCCC` (stereo partly drawn) [α-GalCer, α-galactosylceramide, reference compound], in the test with IFN-γ [3], the IFN-γ production amount entry was “in large amounts”. Moreover, the IL-4 production amount entry in the test with IL-4 [4] is recorded as “in large amounts”.
